Source: patent US6620805B1, “Delivery of nucleic acids by porphyrins” (Yale University, priority 1996, dated 2003)
Like-named read-outs stand apart in the source and are kept apart here.

Legend:
HepG2 2.2.15 cells [1] = details: 5 μg oligo A, 4 h; for cellular delivery compared with TMP: 0-300 μg porphyrin
Procedure: HepG2 2.2.15 cells were set up in 96 well plates as above. […] Complexes were added to the cultures and incubated at 37° C. for 4 h. The monolayers were washed three times with PBS and cells were lysed and counted as previously described.

oligo A [2] = experiment: Carboxymethyl (CM) ion exchange column binding of labelled oligo to cationic porphyrin; details: for porphyrin required for complete binding (saturation) of 60 μg oligo: 60 μg oligo A, 150 mM NaCl, 30 min room temperature, column binding assay
oligo A [3] = details: 2.4 μg TMP, 150 mM NaCl
Text: The interaction of nucleic acids with water soluble porphyrins can easily be followed by measuring the absorbance spectrum of the porphyrin in the range 350-450 nm. Porphyrins have a characteristic Soret peak in this wavelength range. […] Spectra were taken over the range 300-500 nm and the wavelength of the Soret peak plotted against the mass of EGS.

HepG2 2.2.15 cells [4] = experiment: Delivery of TMP-complexed oligo to hepatoma cells in culture (cell-associated radioactivity); assay type: cell-based, human
Procedure: The complexed oligo was delivered to the cell cultures (6 replicates per variable), samples were removed for measurement of delivered radioactivity cpm and the cultures were returned to a 37° C. incubator for 4 h. Cultures were washed three times with 100 μl PBS and cells were lysed with SDS lysis buffer for extraction of nucleic acids (0.5% SDS, 10 mM Tris HCl pH 7.4, 10 mM EDTA, 10 mM NaCl, […] proteinase K). Lysates were counted to determine cell-associated radioactivity and nucleic acids were extracted from the lysate by phenol-chloroform treatment and ethanol precipitation.

hepatoma cells = experiment: Timecourse of binding/uptake of TMP-delivered oligo to hepatoma cells; assay type: cell-based, human; details: 30 μg TMP and 10 μg oligo A
Procedure: A timecourse experiment was carried out to determine the kinetics of binding/uptake of TMP-delivered oligonucleotides to hepatoma cells. […] A control timecourse was prepared without a delivery vehicle. Nucleic acids were recovered from one set of wells and were purified and analysed as described above.

HepG2 2.2.15 cells [5] = experiment: Fluorescence microscopy of delivered fluorescent oligo; assay type: cell-based, human; details: 100 μg fluorescent oligo, with 100 μg TMP or free, 1.5 h and 4 h
Procedure: A 30 mer oligo containing a 5′ fluorescein isothiocyanate molecule was synthesised, oligo C. Sterile glass coverslips were placed into the wells of 6-well plates and HepG2 2.2.15 cells were seeded into the wells at 5×10^4 cells/well. […] After 1.5 h and 4 h the coverslips were removed from the wells, dipped five times in PBS to remove excess oligo and were fixed in 4% formaldehyde in PBS. The coverslips were mounted in Slowfade (Molecular Probes, Inc.), and viewed on a Nikon Diaphot fluorescence microscope.

HepG2 2.2.15 cells [6] = experiment: Influence of serum on TMP delivery of EGS; assay type: cell-based, human; details: 30 μg TMP with 5 μg oligo A; 0, 4% or 10% serum; 4 h and 24 h
Procedure: Ninety-six well plates were set up as described above and allowed to grow until 80% confluence. Six replicate wells for each variable were washed twice with PBS. OPTI MEM (0 serum), 4% FCS in RPMI or 10% FCS in RPMI was added to the appropriate wells.
Oligo A was radiolabelled as above. These complexes were added to the wells (in replicates of 6) and after 4 h and 24 h the monolayers were washed 3 times with PBS. Cells were lysed as above and radioactivity counted.

[7] = 100 or 200 μg TMP with 100 μg oligo
Procedure: An internally-labelled Oligo A was prepared by kinasing a component oligo with ^33P ATP and ligating this shorter oligo to another short component cold oligo to form the full-length version. […] After 2 h and 24 h the mice were killed by cervical dislocation, weighed and their livers removed. Livers were weighed, homogenized and a small sample counted by liquid scintillation counting.

[8] = 200 μg oligo A with 100 μg TMP
Procedure: After 8 h and 24 h mice were sacrificed and their livers quickly immersed in OCT medium (Tissue-Tek) and frozen in liquid N2. Thin sections were cut and sections were mounted on glass slides. Localisation of EGS in the liver section was determined by hybridisation of a ^33P-labelled antisense oligonucleotide complementary to the EGS sequence, and overlaying with a photographic emulsion. Background hybridisation was determined using a ^33P-labelled oligo with the same sequence as the EGS.

HBV = experiment: Anti HBV activity in cell culture (extracellular HBV DNA by dot-blot); assay type: cell-based, Hepatitis B virus; details: TMP concentration corresponding to 100 nM EGS
Procedure: (§1) The human hepatoma cell line HepG2 2.2.15 containing four copies of the HBV genome was used in this study. Cells were plated out (2×10^4/well) into 96 well plates and left for 5 days until confluent. […] The various dilutions were added to the cell monolayers (6 replicates per concentration). Daily treatments were carried out for 5 days changing the medium each day. After the fifth day cell culture supernatant was removed and assayed for extracellular HBV DNA levels by dot-blot using the method of Korba B. E. and Gerin J. L. (Use of a standardized cell culture assay to assess activities of nucleoside analogs against Hepatitis B virus replication. (1992) Antiviral Research 19, 55-70).

9.5 kbp plasmid = details: 20 μg 9.5 kbp plasmid, 500 μg TMP
HepG2 2.2.15 = details: TMP concentration; 700 nM TMP: 100 nM EGS; daily treatments for 5 days
Procedure: as §1

C[N+](C)(C)c1ccc(-c2c3nc(c(-c4ccc([N+](C)(C)C)cc4)c4ccc([nH]4)c(-c4ccc([N+](C)(C)C)cc4)c4nc(c(-c5ccc([N+](C)(C)C)cc5)c5ccc2[nH]5)C=C4)C=C3)cc1 [TMA, meso tetra(trimethyl anilinium)porphine]
cellular delivery compared with TMP (HepG2 2.2.15 cells [1]): never as great as the TMP analogues
porphyrin amount giving maximal nucleic acid uptake (HepG2 2.2.15 cells [1]): 11 µg
porphyrin required for complete binding (saturation) of 60 μg oligo (oligo A [2]): approximately 100 μg

C[n+]1ccc(-c2c3nc(c(-c4cc[n+](C)cc4)c4ccc([nH]4)c(-c4cc[n+](C)cc4)c4nc(c(-c5cc[n+](C)cc5)c5ccc2[nH]5)C=C4)C=C3)cc1.Cc1ccc(S(=O)(=O)[O-])cc1.Cc1ccc(S(=O)(=O)[O-])cc1.Cc1ccc(S(=O)(=O)[O-])cc1.Cc1ccc(S(=O)(=O)[O-])cc1 [TMP, Meso-tetra(N-methyl-4 pyridyl)porphine Tetra Tosylate]
mass of oligo at saturation (Soret peak reached 440 nm) (oligo A [3]): approximately 3 μg
oligo delivered (HepG2 2.2.15 cells [4]; 1 μg delivered dose of oligo, 4 h): 0.5 µg
oligo delivered (HepG2 2.2.15 cells [4]; 5 μg delivered dose of oligo, 4 h): 2.8 µg
oligo delivered (HepG2 2.2.15 cells [4]; 10 μg delivered dose of oligo, 4 h): 4.8 µg
TMP amount at saturation of binding or uptake (HepG2 2.2.15 cells [4]; 1, 5 or 10 μg oligo A, 4 h): 30 µg
maximum oligo cell associated (HepG2 2.2.15 cells [4]; 3×10^4 cells): 4 to 5 µg
added dose cell-associated (HepG2 2.2.15 cells [4]; all oligo doses, 4 h): Approximately 50%
oligo cell-associated (hepatoma cells; 8 h timepoint): greater than 75%
change in cell-associated material after 24 h (hepatoma cells; 24 h): reduction in the material cell-associated
intracellular location of fluorescence (HepG2 2.2.15 cells [5]): All nuclei of the cells in the TMP-delivered fluorescent oligo cultures appeared brightly fluorescent
material cell-associated (HepG2 2.2.15 cells [6]): 50-70%
persistence of delivered oligo in the liver [7]: persisted for 24 h
tolerability in mice ([7]; tail vein): well tolerated
hybridisation signal in liver after 24 h ([8]; 24 h): level of signal is reduced after 24 h
intrahepatic distribution of EGS ([8]; tail vein, mice): substantial EGS present in all hepatocytes
antiviral activity of TMP (HBV): highly antiviral
plasmid bound to TMP (9.5 kbp plasmid): 5 µg
hepatic EGS levels over time (100 μg EGS with 20 μg TMP per mouse (lower TMP dose)): declined slightly over time
hepatic EGS levels over time (100 μg EGS with 100 μg TMP per mouse (higher TMP dose)): gradually increased
EGS level in kidney over time (100 μg EGS with 100 or 20 μg TMP per mouse, 2-72 h): rapid initial peak in the kidney which declined over 72 h
EGS levels in spleen, fat and serum (100 μg EGS with TMP, mice): negligible
enhancement with the higher TMP level (100 versus 20 μg TMP, same amount of EGS): two-fold
liver toxicity (mice, 100 μg EGS with 100 or 20 μg TMP): No liver toxicity was detected
concentration showing no toxicity (HepG2 2.2.15): less than 700 nM
porphyrin required for complete binding (saturation) of 60 μg oligo (oligo A [2]): 60 µg
stoichiometry of oligo:TMP at saturation (oligo A [2]; 30 mer oligo, charge neutralisation): 4 molecules of oligo interact with 29 molecules of TMP

Fe(III)-tetra-(N-methyl-4-pyridyl)-porphyrin chloride [Fe TMP]
cellular delivery compared with TMP (HepG2 2.2.15 cells [1]): does not affect cellular delivery by TMP up to a level of 30 μg
porphyrin amount giving maximal nucleic acid uptake (HepG2 2.2.15 cells [1]): 30 µg
influence of chelated Fe atom on nucleic acid binding (oligo A [2]; compared with TMP): behaved no differently than TMP alone
